# What was measured:
# B-Raf (V600E) = B-Raf (V600E) (Homo sapiens (Human), UniProt P15056, V600E); test: Raf IC50 assay, time-resolved fluorescence energy transfer, B-Raf (V600E); format: biochemical; conditions: 0.1 mM ATP; read-out: IC50 (nM) B_Raf^V600E
# Procedure: The enzyme was incubated with the compounds at room temperature for 60 minutes and the reactions were initiated by the addition of ATP and GST-MEK1. After reaction at room temperature for 60 minutes, an equal volume of stop/detection solution was added according to the manufacture's instruction (CisBio Bioassays). […] The IC50 for each compound was derived from fitting the dose-response % inhibition data to the four-parameter logistic model by Graphpad Prism software.
# A375 = test: Anti-proliferative activity EC50 assay (CellTiter-Glo) in A375; format: cell-based; conditions: Homo sapiens, A-375, 72 h; 3-day exposure; read-out: Cell Proliferation EC50 (nM) A375
# Procedure: The growth-inhibitory activity of compounds in A375 and p61-A375, was determined using CellTiter-Glo luminescent cell viability assay (Promega). The 2,000 cells were seeded per well of a 96-well plate to ensure logarithmic growth could occur over the 3 days treatment period. Cells were left to attach for 16 hours, cells were treated in duplicate with a 10-point dilution series. Following a 3-day exposure to compounds disclosed herein, a volume of CellTiter-Glo reagent equal to the volume of cell culture medium present in each well was added. Mixture was mixed on an orbital shaker for 2 minutes to allow cell lysis, followed by 10 minutes incubation at room temperature to allow stabilization of luminescent signal, which corresponded to quantitation of ATP and thus the quantitation of metabolically active cells. Luminescent signal was measured using Pherastar FS reader (BMG Labtech).
# EC50 values for growth inhibition were calculated by fitting dose-dependent data to the four-parameter logistic model using GraphPad Prism software.
# Sequence of B-Raf (V600E) (P15056 whole entry V600E): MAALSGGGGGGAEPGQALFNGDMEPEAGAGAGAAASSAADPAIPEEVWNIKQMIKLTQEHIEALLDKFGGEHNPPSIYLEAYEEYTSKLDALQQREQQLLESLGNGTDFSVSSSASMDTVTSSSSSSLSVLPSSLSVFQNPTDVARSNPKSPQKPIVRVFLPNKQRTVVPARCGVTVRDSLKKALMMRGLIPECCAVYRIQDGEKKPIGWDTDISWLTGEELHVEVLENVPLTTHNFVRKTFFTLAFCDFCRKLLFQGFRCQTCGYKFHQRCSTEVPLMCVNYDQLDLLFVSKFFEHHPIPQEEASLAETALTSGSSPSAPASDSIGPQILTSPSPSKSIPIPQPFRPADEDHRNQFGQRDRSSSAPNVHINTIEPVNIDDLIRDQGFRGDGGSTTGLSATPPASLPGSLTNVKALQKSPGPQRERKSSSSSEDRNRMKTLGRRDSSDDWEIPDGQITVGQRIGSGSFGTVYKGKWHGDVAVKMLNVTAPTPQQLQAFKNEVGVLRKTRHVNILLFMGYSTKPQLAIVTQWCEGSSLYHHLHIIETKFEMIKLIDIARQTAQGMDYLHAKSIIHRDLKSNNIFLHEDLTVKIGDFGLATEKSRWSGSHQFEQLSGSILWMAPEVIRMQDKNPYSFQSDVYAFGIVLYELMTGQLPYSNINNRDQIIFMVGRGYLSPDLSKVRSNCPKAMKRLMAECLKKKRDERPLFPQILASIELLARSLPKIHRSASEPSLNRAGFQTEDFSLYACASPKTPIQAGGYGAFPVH
Structure (SMILES),IC50 (B-Raf (V600E)) [nM],EC50 (A375) [nM]
"O=C1NCc2c(Oc3ccc4c(c3)[C@H]3[C@H](NC(=O)Nc5ccc(F)c(C(F)(F)F)c5)[C@H]3O4)ccnc2N1 [Compound 2.4, 1-(4-fluoro-3-(trifluoromethyl)phenyl)-3-((1S,1aS,6bS)-5-((2-oxo-1,2,3,4-tetrahydropyrido[2,3-d]pyrimidin-5-yl)oxy)-1a,6b-dihydro-1H-cyclopropa[b]benzofuran-1-yl)urea]",11,374
"O=C(Nc1ccc(F)cc1F)N[C@@H]1[C@H]2Oc3ccc(Oc4ccncn4)cc3[C@@H]12 [Compound 2.1, 1-(2,4-difluorophenyl)-3-((1S,1aS,6bS)-5-(pyrimidin-4-yloxy)-1a,6b-dihydro-1H-cyclopropa[b]benzofuran-1-yl)urea]",1100,
"Nc1cc(Oc2ccc3c(c2)[C@H]2[C@H](NC(=O)Nc4ccc(F)cc4F)[C@H]2O3)ccn1 [Compound 2.14, 1-((1S,1aS,6bS)-5-((2-aminopyridin-4-yl)oxy)-1a,6b-dihydro-1H-cyclopropa[b]benzofuran-1-yl)-3-(2,4-difluorophenyl)urea]",36,
O=C1CCc2c(Oc3ccc4c(c3)[C@H]3[C@H](NC(=O)Nc5ccc(C(F)(F)F)c(F)c5)[C@H]3O4)ccnc2N1 [Compound 1.64],27,
COc1ccc(NC(=O)N[C@@H]2[C@H]3Oc4ccc(Oc5ccnc6c5CCC(=O)N6)cc4[C@@H]23)cc1 [Compound 1.50],0.8,
"O=C(Nc1ccc(F)c(C(F)(F)F)c1)N[C@@H]1[C@H]2Oc3ccc(Oc4ncnc5[nH]cnc45)cc3[C@@H]12 [Compound 2.12, 1-((1S,1aS,6bS)-5-((9H-purin-6-yl)oxy)-1a,6b-dihydro-1H-cyclopropa[b]benzofuran-1-yl)-3-(4-fluoro-3-(trifluoromethyl)phenyl)urea]",10,
CC(C)(C)c1ccc(NC(=O)N[C@@H]2[C@H]3Oc4ccc(Oc5ccnc6c5CCC(=O)N6)cc4[C@@H]23)cc1 [Compound 1.18],16,
O=C1CCc2c(Oc3ccc4c(c3)[C@H]3[C@H](NC(=O)Nc5cc(Br)ccc5Cl)[C@H]3O4)ccnc2N1 [Compound 1.8],8.7,
O=C1CCc2c(Oc3ccc4c(c3)[C@H]3[C@H](NC(=O)NC5CCOCC5)[C@H]3O4)ccnc2N1 [Compound 1.67],4.2,4170
CCCCCCCCNC(=O)N[C@@H]1[C@H]2Oc3ccc(Oc4ccnc5c4CCC(=O)N5)cc3[C@@H]12 [Compound 1.84],12,4330
O=C1CCc2c(Oc3ccc4c(c3)[C@H]3[C@H](NC(=O)NC5CC5)[C@H]3O4)ccnc2N1 [Compound 1.69],30,
O=C(Nc1cc(F)c(F)cc1F)N[C@@H]1[C@H]2Oc3ccc(Oc4ccncc4)cc3[C@@H]12 [Compound 2.10],50,
O=C1CCc2c(Oc3ccc4c(c3)[C@H]3[C@H](NC(=O)Nc5cc(Cl)ccn5)[C@H]3O4)ccnc2N1 [Compound 1.37],0.85,
O=C(Nc1ccc(F)cc1F)N[C@@H]1[C@H]2Oc3ccc(Oc4ncnc5[nH]cnc45)cc3[C@@H]12 [Compound 2.13],24,
Cc1ccncc1NC(=O)N[C@@H]1[C@H]2Oc3ccc(Oc4ccnc5c4CCC(=O)N5)cc3[C@@H]12 [Compound 1.39],2.6,
CNC(=O)c1cc(Oc2ccc3c(c2)[C@H]2[C@H](NC(=O)Nc4ccc(Cl)c(C(F)(F)F)c4)[C@H]2O3)ccn1 [Compound 2.16],88,
O=C1CCc2c(Oc3ccc4c(c3)[C@H]3[C@H](NC(=O)N[C@H]5CCc6ccccc65)[C@H]3O4)ccnc2N1 [Compound 1.81],2.7,159
CN1CCC(NC(=O)N[C@@H]2[C@H]3Oc4ccc(Oc5ccnc6c5CCC(=O)N6)cc4[C@@H]23)CC1 [Compound 1.68],20,
O=C1CCc2c(Oc3ccc4c(c3)[C@H]3[C@H](NC(=O)Nc5ccc(C(F)(F)F)cn5)[C@H]3O4)ccnc2N1 [Compound 1.38],4,
COc1cc(NC(=O)N[C@@H]2[C@H]3Oc4ccc(Oc5ccnc6c5CCC(=O)N6)cc4[C@@H]23)cc(OC)c1 [Compound 1.17],1.5,
CCCCCCCCCCNC(=O)N[C@@H]1[C@H]2Oc3ccc(Oc4ccnc5c4CCC(=O)N5)cc3[C@@H]12 [Compound 1.85],129,
"O=C(Nc1cc(F)c(F)cc1F)N[C@@H]1[C@H]2Oc3ccc(Oc4ccnc5c4COC(=O)N5)cc3[C@@H]12 [Compound 2.3, 1-((1S,1aS,6bS)-5-((2-oxo-2,4-dihydro-1H-pyrido[2,3-d][1,3]oxazin-5-yl)oxy)-1a,6b-dihydro-1H-cyclopropa[b]benzofuran-1-yl)-3-(2,4,5-trifluorophenyl)urea]",2.6,190
O=C1CCc2c(Oc3ccc4c(c3)[C@H]3C(NC(=O)NCc5ccc(F)cc5C(F)(F)F)[C@H]3O4)ccnc2N1 (some centres unmarked) [Compound 1.76],3.4,1310
O=C1CCc2c(Oc3ccc4c(c3)[C@H]3[C@H](NC(=O)Nc5cc(C(F)(F)F)cc(C(F)(F)F)c5)[C@H]3O4)ccnc2N1 [Compound 1.65],116,
O=C1CCc2c(Oc3ccc4c(c3)[C@H]3[C@H](NC(=O)Nc5ccncn5)[C@H]3O4)ccnc2N1 [Compound 1.36],1.3,

Structure (SMILES),IC50 (B-Raf (V600E)) [nM],EC50 (A375) [nM]
CC(C)(C)CNC(=O)N[C@@H]1[C@H]2Oc3ccc(Oc4ccnc5c4CCC(=O)N5)cc3[C@@H]12 [Compound 1.83],3,291
O=C1CCc2c(Oc3ccc4c(c3)[C@H]3[C@H](NC(=O)Nc5ccc(Br)cc5Cl)[C@H]3O4)ccnc2N1 [Compound 1.10],6.3,
O=C1CCc2c(Oc3ccc4c(c3)[C@H]3[C@H](NC(=O)NCc5ccc(F)cc5)[C@H]3O4)ccnc2N1 [Compound 1.59],0.84,891
O=C1CCc2c(Oc3ccc4c(c3)[C@H]3[C@H](NC(=O)NCc5ccc(C(F)(F)F)cc5)[C@H]3O4)ccnc2N1 [Compound 1.56],158,
O=C1CCc2c(Oc3ccc4c(c3)[C@H]3[C@H](NC(=O)Nc5cccc([N+](=O)[O-])c5)[C@H]3O4)ccnc2N1 [Compound 1.13],1.8,
CN(C)Cc1ccc(NC(=O)N[C@@H]2[C@H]3Oc4ccc(Oc5ccnc6c5CCC(=O)N6)cc4[C@@H]23)cc1 [Compound 1.26],2680,
O=C1CCc2c(Oc3ccc4c(c3)[C@H]3[C@H](NC(=O)Nc5ccccc5OC(F)(F)F)[C@H]3O4)ccnc2N1 [Compound 1.62],6.3,302
O=C1CCc2c(Oc3ccc4c(c3)[C@H]3[C@H](NC(=O)Nc5ccc(OC(F)(F)F)cc5)[C@H]3O4)ccnc2N1 [Compound 1.61],7.4,975
O=C1CCc2c(Oc3ccc4c(c3)[C@@H]3[C@@H](NC(=O)Nc5cc(C(F)(F)F)ccn5)[C@@H]3O4)ccnc2N1 [Compound 1.72],1.9,
CCCCCCNC(=O)N[C@@H]1[C@H]2Oc3ccc(Oc4ccnc5c4CCC(=O)N5)cc3[C@@H]12 [Compound 1.78],0.72,1900
COc1ccc(NC(=O)N[C@@H]2[C@H]3Oc4ccc(Oc5ccnc6c5CCC(=O)N6)cc4[C@@H]23)c(Cl)c1 [Compound 1.4],1.8,
O=C1CCc2c(Oc3ccc4c(c3)[C@H]3[C@H](NC(=O)N[C@@H]5CCc6ccccc65)[C@H]3O4)ccnc2N1 [Compound 1.82],2.4,867
O=C1CCc2c(Oc3ccc4c(c3)[C@H]3[C@H](NC(=O)Nc5ccc(C(F)(F)F)cc5)[C@H]3O4)ccnc2N1 [Compound 1.29],6.9,222
CCN1CCN(Cc2ccc(NC(=O)N[C@@H]3[C@H]4Oc5ccc(Oc6ccnc7c6CCC(=O)N7)cc5[C@@H]34)cc2F)CC1 [Compound 1.74],821,
COc1ccc(Cl)c(NC(=O)N[C@@H]2[C@H]3Oc4ccc(Oc5ccnc6c5CCC(=O)N6)cc4[C@@H]23)c1 [Compound 1.5],2.2,
CCN1CCN(c2ccc(NC(=O)N[C@@H]3[C@H]4Oc5ccc(Oc6ccnc7c6CCC(=O)N7)cc5[C@@H]34)cc2C(F)(F)F)CC1 [Compound 1.87],227,
O=C(Nc1ccc(F)c(F)c1)N[C@@H]1[C@H]2Oc3ccc(Oc4ccncn4)cc3[C@@H]12 [Compound 2.2],111,
COc1cc(NC(=O)N[C@@H]2[C@H]3Oc4ccc(Oc5ccnc6c5CCC(=O)N6)cc4[C@@H]23)c(Cl)cc1Cl [Compound 1.27],11,
CN1CCN(Cc2ccc(NC(=O)N[C@@H]3[C@H]4Oc5ccc(Oc6ccnc7c6CCC(=O)N7)cc5[C@@H]34)cc2)CC1 [Compound 1.63],> 5000,
O=C(Nc1cccc(C(F)(F)F)c1)N[C@@H]1[C@H]2Oc3ccc(Oc4ccncc4)cc3[C@@H]12 [Compound 2.11],58,
O=C(Nc1ccc(F)c(C(F)(F)F)c1)N[C@@H]1[C@H]2Oc3ccc(Oc4ccncc4)cc3[C@@H]12 [Compound 2.9],24,
O=C1CCc2c(Oc3ccc4c(c3)[C@H]3[C@H](NC(=O)Nc5ccc6c(c5)CCC6)[C@H]3O4)ccnc2N1 [Compound 1.16],2.6,
COc1ccc(NC(=O)N[C@@H]2[C@H]3Oc4ccc(Oc5ccnc6c5CCC(=O)N6)cc4[C@@H]23)cc1OC [Compound 1.15],2.3,
"CN1CCN(c2ccc(NC(=O)N[C@@H]3[C@H]4Oc5ccc(Oc6ccnc7c6CCC(=O)N7)cc5[C@@H]34)cc2C(F)(F)F)CC1 [Compound 1.86, 1-(4-(4-methylpiperazin-1-yl)-3-(trifluoromethyl)phenyl)-3-((1S,1aS,6bS)-5-((7-oxo-5,6,7,8-tetrahydro-1,8-naphthyridin-4-yl)oxy)-1a,6b-dihydro-1H-cyclopropa[b]benzofuran-1-yl)urea]",183,

# — patent US9670203B2 (BeiGene, LTD., priority 2013, dated 2017)
